Marks after values point to notes of the source that are not given here.
Columns and labels:
[1] = circular dichroism (CD) detection of alpha helix content in PBS; format: physicochemical; set-up: [θ]215 / [θ]207 / [θ]190: unit not given here; details: for [θ]190 / [θ]207 / [θ]215 / [θ]215/[θ]207: CD; for [θ]190 / [θ]207 / [θ]215 / [θ]215/[θ]207 / relative content of alpha helix: PBS pH = 7.4, 22° C., 10 mM; for alpha helix stabilization / content by CD (in words): PBS 10 mM; for relative content of alpha helix: [θ]215(x)/[θ]215(ASOB), ASOB is the standard
Protocol: The obtained compound 4 is dissolved into of PBS (PH=7.4, 10 mM) for obtaining a CD diagram.
fH=([θ]obs215-[θ]C)/([θ]∞215-[θ]C);
wherein T=22° C.; κ=4.0; Np=6 (for pentapeptide); ι=0.1 (cm); C is a molarity M of the samples of the two isomers.

[2] = CD comparison in PBS and 50% trifluoroethanol (TFE) solution; format: physicochemical; details: CD in PBS versus 50% TFE solution
Text: FIG. 2 is a CD diagram of the Ac-cyclo(1,5)-monoS5AAAC-NH2 sulfoxide B in the PBS and a 50% trifluoroethanol (TFE) solution according to the Example 1 of the present invention.

Row | Substance | [θ]190 [1] | [θ]207 [1] | [θ]215 [1] | [θ]215/[θ]207 [1] | alpha helix stabilization / content by CD (in words) [1] | relative content of alpha helix [1] | effect of TFE buffer solution on the alpha helix [2] | improvement of the effects of stabilizing the alpha helix compared to conventional amido bond stabilization ([1]; versus control of Table 3, identical intermediate sequences) [%]
1 | Ac-cyclo(1,5)-monoS5AAAC-NH2 sulfoxide B [ASOB] | 25987 | −16054 | −15666 | 0.98 | has stable alpha helixes | 1.00 | no improvements | 
2 | Ac-cyclo(1,5)-monoS5AIAC-NH2 sulfoxide B [ISOB] | 26306 | −15556 | −13558 | 0.87 | identically high contents of the alpha helixes | 0.87 |  | 
3 | Ac-cyclo(1,5)-monoS5AGAC-NH2 sulfoxide B [GSOB] | 9121 | −7777 | −7920 | 1.02 | identically high contents of the alpha helixes | 0.51 |  | 
4 | Ac-cyclo(1,5)-monoS6AAAC-NH2 sulfoxide B |  |  |  |  | has effects of stabilizing alpha helix |  |  | 
5 | Ac-cyclo(1,5)-monoS5AAAC-NH2 sulfoxide A [ASOA] | −14594 | −4667 | 672 | −0.14 |  | −0.04 |  | 14
6 | Ac-(cyclo2,6)-R[KAAAD]-NH2 [control, reference compound] | 39352 | −13684 | −13537 | 0.99 |  | 0.86** |  | 

From US20140357841A1, “Method for stabilizing polypeptide into alpha helix” (Peking University Shenzhen Graduate School, priority 2013, published 2014)
